ChEMBL document CHEMBL3046260, “Synthesis of benzo[b][1,4]oxazin-3(4H)-ones via smiles rearrangement for antimicrobial activity” (2011)
Converted amounts (≈) assume the structure as drawn. The source made the active and inactive calls. No cut-off for these calls is given here.

Key:
Pseudomonas aeruginosa [1] = assay: Microbiostatic activity against Pseudomonas aeruginosa ATCC 27853 after 24 hr
Bacillus spizizenii [2] = assay: Antimicrobial activity against Bacillus subtilis subsp. spizizenii ATCC 6633 after 24 hr by two-fold serial dilution method; format: functional; conditions: ATCC 6633, 24 h
Staphylococcus aureus [3] = assay: Microbiostatic activity against Staphylococcus aureus ATCC 25923 after 24 hr
Escherichia coli [4] = assay: Microbiostatic activity against Escherichia coli ATCC 25922 after […]; format: functional, organism-based
Escherichia coli [5] = assay: Antimicrobial activity against Escherichia coli ATCC 25922 after 24 hr by two-fold serial dilution method; format: functional; conditions: ATCC 25922, 24 h
Candida albicans [6] = assay: Antimicrobial activity against Candida albicans ATCC 76615 after 48 hr by two-fold serial dilution method; format: functional; conditions: ATCC 76615, 48 h
Pseudomonas aeruginosa [7] = assay: Antimicrobial activity against Pseudomonas aeruginosa ATCC 27853 after 24 hr by two-fold serial dilution method; format: functional; conditions: ATCC 27853, 24 h
Aspergillus flavus [8] = assay: Microbiostatic activity against Aspergillus flavus ATCC 10124; format: functional, organism-based
Proteus vulgaris [9] = assay: Microbiostatic activity against Proteus vulgaris ATCC 6896 after 24 hr
Bacillus spizizenii [10] = assay: Microbiostatic activity against Bacillus subtilis subsp. spizizenii ATCC 6633 after 24 hr
Staphylococcus aureus [11] = assay: Antimicrobial activity against Staphylococcus aureus ATCC 25923 after 24 hr by two-fold serial dilution method; format: functional; conditions: ATCC 25923, 24 h
Candida albicans [12] = assay: Microbiostatic activity against Candida albicans ATCC 76615; format: functional, organism-based
Proteus vulgaris [13] = assay: Antimicrobial activity against Proteus vulgaris ATCC 6896 after 24 hr by two-fold serial dilution method; format: functional; conditions: ATCC 6896, 24 h
Aspergillus flavus [14] = assay: Antimicrobial activity against Aspergillus flavus ATCC 10124 after 48 hr by two-foldserial dilution method; format: functional; conditions: ATCC 10124, 48 h

SMILES | Activity (Pseudomonas aeruginosa [1]) | MIC (Bacillus spizizenii [2]) [µg/mL] | Activity (Staphylococcus aureus [3]) | Activity (Escherichia coli [4]) | MIC (Escherichia coli [5]) [µg/mL] | MIC (Candida albicans [6]) [µg/mL] | MIC (Pseudomonas aeruginosa [7]) [µg/mL] | Activity (Aspergillus flavus [8]) | Activity (Proteus vulgaris [9]) | Activity (Bacillus spizizenii [10]) | MIC (Staphylococcus aureus [11]) [µg/mL] | Activity (Candida albicans [12]) | MIC (Proteus vulgaris [13]) [µg/mL] | MIC (Aspergillus flavus [14]) [µg/mL]
CCCCCCN1C(=O)COc2cc(Cl)ccc21 | Active | 32 (≈ 120 µM) | Active | Active | 32 (≈ 120 µM) | 512 (≈ 1910 µM) | 32 (≈ 120 µM) | Active | Active | Active | 32 (≈ 120 µM) | Active | 16 (≈ 59.8 µM) | 
CCCCCCN1C(=O)COc2cc(Br)ccc21 | Active | 32 (≈ 102 µM) | Active | Active | 32 (≈ 102 µM) | 128 (≈ 410 µM) | 32 (≈ 102 µM) | Active | Active | Active | 32 (≈ 102 µM) | Active | 16 (≈ 51.2 µM) | 
CCCCCCN1C(=O)COc2cc(F)ccc21 | Active | 32 (≈ 127 µM) | Active | Active | 16 (≈ 63.7 µM) | 128 (≈ 509 µM) | 128 (≈ 509 µM) | Active | Active | Active | 32 (≈ 127 µM) | Active | 16 (≈ 63.7 µM) | 128 (≈ 509 µM)
O=C1COc2c(Cl)cccc2N1C1CCCCC1 | Active | 32 (≈ 120 µM) | Active | Active | 32 (≈ 120 µM) | 128 (≈ 482 µM) | 16 (≈ 60.2 µM) | Active | Active | Active | 64 (≈ 241 µM) | Active | 32 (≈ 120 µM) | 256 (≈ 963 µM)
O=C1COc2cc(Cl)ccc2N1Cc1ccccc1 | Active | 32 (≈ 117 µM) | Active | Active | 64 (≈ 234 µM) | 128 (≈ 468 µM) | 16 (≈ 58.5 µM) | Active | Active | Active | 64 (≈ 234 µM) | Active | 64 (≈ 234 µM) | 128 (≈ 468 µM)
O=C1COc2cc(F)ccc2N1C1CCCCC1 | Active | 32 (≈ 128 µM) | Active | Active | 16 (≈ 64.2 µM) | 256 (≈ 1030 µM) | 16 (≈ 64.2 µM) | Active | Active | Active | 16 (≈ 64.2 µM) | Active | 16 (≈ 64.2 µM) | 64 (≈ 257 µM)
O=C1COc2ccc(Cl)cc2N1Cc1ccccc1 | Active | 32 (≈ 117 µM) | Active | Active | 128 (≈ 468 µM) | 64 (≈ 234 µM) | 128 (≈ 468 µM) | Active | Active | Active | 64 (≈ 234 µM) | Active | 32 (≈ 117 µM) | 32 (≈ 117 µM)
CC1(C)S[C@@H]2[C@H](NC(=O)[C@H](N)c3ccccc3)C(=O)N2[C@H]1C(=O)O [AMPICILLIN] | Active | 1 (≈ 2.86 µM) | Active | Active | 16 (≈ 45.8 µM) |  | 128 (≈ 366 µM) | Active | Active | Active | 2 (≈ 5.72 µM) | Active | 16 (≈ 45.8 µM) | 
O=C1COc2cc(Br)ccc2N1Cc1ccccc1 | Active | 32 (≈ 101 µM) | Active | Active | 32 (≈ 101 µM) | 128 (≈ 402 µM) | 16 (≈ 50.3 µM) | Active | Active | Active | 32 (≈ 101 µM) | Active | 32 (≈ 101 µM) | 128 (≈ 402 µM)
O=C1COc2cc(Cl)ccc2N1CCc1ccccc1 | Active | 64 (≈ 222 µM) | Active | Active | 32 (≈ 111 µM) | 128 (≈ 445 µM) | 16 (≈ 55.6 µM) | Active | Active | Active | 64 (≈ 222 µM) | Active | 16 (≈ 55.6 µM) | 
O=C1COc2cc(Br)ccc2N1CC1CCCO1 (stereo not drawn) | Active | 32 (≈ 103 µM) | Active | Active | 32 (≈ 103 µM) | 128 (≈ 410 µM) | 64 (≈ 205 µM) | Active | Active | Active | 32 (≈ 103 µM) | Active | 32 (≈ 103 µM) | 
CC(C)(O/N=C(\C(=O)N[C@@H]1C(=O)N2C(C(=O)[O-])=C(C[n+]3ccccc3)CS[C@H]12)c1csc(N)n1)C(=O)O [CEFTAZIDIME] | Active | 2 (≈ 3.66 µM) | Active | Active | 4 (≈ 7.32 µM) |  | 128 (≈ 234 µM) | Active | Active | Active | 4 (≈ 7.32 µM) | Active | 4 (≈ 7.32 µM) | 
O=C1COc2cc(Br)ccc2N1C1CCCCC1 | Active | 32 (≈ 103 µM) | Active | Active | 16 (≈ 51.6 µM) | 256 (≈ 825 µM) | 16 (≈ 51.6 µM) | Active | Active | Active | 32 (≈ 103 µM) | Active | 32 (≈ 103 µM) | 
O=C1COc2cc(F)ccc2N1CC1CCCO1 (stereo not drawn) | Active | 32 (≈ 127 µM) | Active | Active | 32 (≈ 127 µM) | 256 (≈ 1020 µM) | 128 (≈ 509 µM) | Active | Active | Active | 32 (≈ 127 µM) | Active | 16 (≈ 63.7 µM) | 
O=C1COc2ccc(Cl)cc2N1C1CCCCC1 | Active | 32 (≈ 120 µM) | Active | Active | 128 (≈ 482 µM) | 32 (≈ 120 µM) | 64 (≈ 241 µM) | Active | Active | Active | 128 (≈ 482 µM) | Active | 16 (≈ 60.2 µM) | 32 (≈ 120 µM)
O=C1COc2cc(Cl)ccc2N1C1CCCCC1 | Active | 64 (≈ 241 µM) | Active | Active | 32 (≈ 120 µM) | 256 (≈ 963 µM) | 32 (≈ 120 µM) | Active | Active | Active | 64 (≈ 241 µM) | Active | 64 (≈ 241 µM) | 128 (≈ 482 µM)
Clc1ccccc1C(c1ccccc1)(c1ccccc1)n1ccnc1 [CLOTRIMAZOLE] | Active | 512 (≈ 1480 µM) | Active | Active | 512 (≈ 1480 µM) | 2 (≈ 5.8 µM) | 512 (≈ 1480 µM) | Active | Active | Active | 512 (≈ 1480 µM) | Active | 512 (≈ 1480 µM) | 2 (≈ 5.8 µM)
O=C1COc2cc(F)ccc2N1Cc1ccccc1 | Active | 32 (≈ 124 µM) | Active | Active | 16 (≈ 62.2 µM) | 256 (≈ 995 µM) | 16 (≈ 62.2 µM) | Active | Active | Active | 64 (≈ 249 µM) | Active | 32 (≈ 124 µM) | 128 (≈ 498 µM)
CN[C@@H]1[C@H](O[C@H]2[C@H](O[C@H]3[C@H](O)[C@@H](O)[C@H](N=C(N)N)[C@@H](O)[C@@H]3N=C(N)N)O[C@@H](C)[C@]2(O)C=O)O[C@@H](CO)[C@H](O)[C@H]1O [STREPTOMYCIN] | Active | 32 (≈ 55 µM) | Active | Active | 4 (≈ 6.88 µM) |  | 2 (≈ 3.44 µM) | Active | Active | Active | 2 (≈ 3.44 µM) | Active | 4 (≈ 6.88 µM) | 
O=C1COc2cc(Cl)ccc2N1CC1CCCO1 (stereo not drawn) | Active | 32 (≈ 120 µM) | Active | Active | 32 (≈ 120 µM) | 128 (≈ 478 µM) | 64 (≈ 239 µM) | Active | Active | Active | 32 (≈ 120 µM) | Active | 32 (≈ 120 µM) | 256 (≈ 956 µM)
